Earlier results as cited in patent US8034921B2, “IRNA agents targeting CCR5 expressing cells and uses thereof” (Alnylam Pharmaceuticals, Inc., priority 2006, dated 2011).
Read-outs that look alike come from different tables or passages of the source. Each block holds one compound with its values, some of them ahead of it.

Key:
CCR5 [1] = molecular target: T1, CCR5 (Homo sapiens, UniProt P51681); parameters: expressed in transfected cells; host or cells: CHO cells; conditions: CCR5-expressing CHO cells; read-out: IC50, inhibition of [125I]RANTES binding
T1 sequence (P51681 whole entry): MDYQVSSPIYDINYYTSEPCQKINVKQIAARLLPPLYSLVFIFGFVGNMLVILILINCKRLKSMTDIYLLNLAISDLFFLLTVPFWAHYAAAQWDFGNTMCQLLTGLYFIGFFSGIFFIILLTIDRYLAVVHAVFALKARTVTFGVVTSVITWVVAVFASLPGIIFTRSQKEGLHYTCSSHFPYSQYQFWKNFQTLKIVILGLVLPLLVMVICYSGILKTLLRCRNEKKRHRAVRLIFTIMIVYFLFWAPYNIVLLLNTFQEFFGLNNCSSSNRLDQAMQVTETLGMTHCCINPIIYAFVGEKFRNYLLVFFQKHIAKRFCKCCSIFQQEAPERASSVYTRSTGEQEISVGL

CCR5 [2] = molecular target: T1, CCR5; parameters: expressed in transfected cells; host or cells: CHO cells; conditions: CHO cells expressing recombinant human CCR5
CCR5 [3] = molecular target: T1, CCR5; parameters: expressed in transfected cells; host or cells: CHO cells; conditions: membranes from CHO cells stably expressing recombinant human CCR5; read-out: IC50, binding of [125I]RANTES
cyano CCR5 = cyano CCR5 (Macaca fascicularis, UniProt P61814); conditions: cyano CCR5, transfected CHO cell membranes; read-out: IC50, CCR5 binding against [125I]MI-1α
CCR5 [4] = molecular target: T1, CCR5; conditions: read-out: IC50, inhibition of [125I]MIP-1α binding
[5] = rodents
HIV-1 gp120/CCR5 = HIV-1 gp120/CCR5 (Homo sapiens, UniProt P51681); conditions: read-out: IC50, HIV-1 gp120/CCR5 binding
HIV-1 gp120/CCR5, sequence (P51681 whole entry): as the sequence (P51681 whole entry) above

[6] = healthy volunteers
[7] = in vivo

IC50 (CCR5 [1]): 3.6 nM
SMILES: CCCCOCCOc1ccc(-c2ccc3c(c2)C=C(C(=O)Nc2ccc(CN(C)C4CCOCC4)cc2)CCN3CC(C)C)cc1 [Compound 17b]

IC50 (CCR5 [1]): 1.2 nM
SMILES: CN(C)S(=O)(=O)c1ccc(CC2CCN(CCCN(C(=O)C3CCN(S(C)(=O)=O)CC3)c3ccc(Cl)c(Cl)c3)CC2)cc1 [Compound 9c]

IC50 (CCR5 [1]): 27 nM
SMILES: CCCCOCCOc1ccc(-c2ccc3c(c2)C=C(C(=O)Nc2ccc(CN(C)C4CCOCC4)cc2)CCS3(=O)=O)cc1 [Compound 17a]

IC50 (CCR5 [1]): 3.4 nM
SMILES: CS(=O)(=O)N1CCC(C(=O)N(CCCN2CCC(Cc3ccc(S(N)(=O)=O)cc3)CC2)c2ccc(Cl)c(Cl)c2)CC1 [Compound 9a]

IC50 (CCR5 [1]): 1.3 nM
SMILES: CS(=O)(=O)N1CCC(C(=O)N(CCCN2CCC(Cc3ccc(S(=O)(=O)N4CCOCC4)cc3)CC2)c2ccc(Cl)c(Cl)c2)CC1 [Compound 9d]

IC50 (CCR5 [1]): 1.5 nM
SMILES: CNS(=O)(=O)c1ccc(CC2CCN(CCCN(C(=O)C3CCN(S(C)(=O)=O)CC3)c3ccc(Cl)c(Cl)c3)CC2)cc1 [Compound 9b]

Second part, the compound before the results:

SMILES: CCN(C(=O)Cc1ccc(S(C)(=O)=O)cc1)C1CCN(C(C)CC(NC(=O)OC2CCOCC2)c2ccccc2)CC1 (stereo not shown) [Compound 3]
IC50 for inhibition of CCL3 and CCL5 binding (CCR5 [2]): sub-nanomolar range

SMILES: CCN(C(=O)Cc1ccc(S(=O)(=O)N(C)C)cc1)C1CCN(CCC(c2ccccc2)c2ccccc2)CC1 [Compound 5b]
IC50 (CCR5 [3]): < 10 nM

SMILES: Cc1cccc(C)c1C(=O)N1CCC(C)(N2CCC(N(Cc3ccccc3)c3ccccc3)CC2)CC1 [Compound 19]
IC50 (cyano CCR5): 0.7 nM

SMILES: C=CCN(C(=O)OCc1ccc([N+](=O)[O-])cc1)C1CCN(CCC(C)(CN(C)S(=O)(=O)c2ccccc2)c2ccccc2)CC1 (stereo not shown) [Compound 21]
IC50 (CCR5 [4]): 4.4 nM

SMILES: O=C(Nc1ccc(Cl)cc1)N(CCCN1CCC(Cc2ccc(S(=O)(=O)N3CCOCC3)cc2)CC1)c1ccccc1 [Compound 15]
IC50 (CCR5 [1]): 1 nM

SMILES: CCCCN1C(=O)C(CC2CCCCC2)NC(=O)C12CCN(Cc1ccc3c(c1)OCCO3)CC2 (stereo not shown) [Compound 13]
activity against a wide range of R5 HIV-1 isolates (R5 HIV-1 isolates): potent activity
oral bioavailability [5]: favorable
IC50 (HIV-1 gp120/CCR5): 1 nM
QTc prolongation [6]: some incidents of QTc prolongation
serious adverse events [6]: No serious adverse events
tolerated dose ([6]; multiple dosing twice a day): 800 mg
tolerated dose ([6]; single dose): 1200 mg

SMILES: CCN(C(=O)Nc1ccc(S(C)(=O)=O)cc1)C1CCN(CCC(c2ccccc2)c2ccccc2)CC1 [Compound 7]
IC50 (CCR5 [3]): 49 nM

SMILES: COC[C@@H](c1ccc(C(F)(F)F)cc1)N1CCN(C2(C)CCN(C(=O)c3c(C)ncnc3C)CC2)C[C@@H]1C [Compound 1]
viral load (HIV-infected patients; 48 HIV-infected patients, phase I): dose-dependent reduction in viral load
cardiovascular side effects (HIV-infected patients; human, in vivo): no cardiovascular side effects
bioavailability [7]: 100%
